These results are taken from patent US12459967B2, “Modulators of 5′-nucleotidase, ecto and the use thereof” (Arcus Biosciences, Inc., priority 2016, dated 2025).

The target in this assay is T1, human CD73 (Homo sapiens, UniProt P21589).
T1 construct: host or cells: CHO-K1 (suspension pool CHO-CD73)
T1 sequence (P21589 27-549): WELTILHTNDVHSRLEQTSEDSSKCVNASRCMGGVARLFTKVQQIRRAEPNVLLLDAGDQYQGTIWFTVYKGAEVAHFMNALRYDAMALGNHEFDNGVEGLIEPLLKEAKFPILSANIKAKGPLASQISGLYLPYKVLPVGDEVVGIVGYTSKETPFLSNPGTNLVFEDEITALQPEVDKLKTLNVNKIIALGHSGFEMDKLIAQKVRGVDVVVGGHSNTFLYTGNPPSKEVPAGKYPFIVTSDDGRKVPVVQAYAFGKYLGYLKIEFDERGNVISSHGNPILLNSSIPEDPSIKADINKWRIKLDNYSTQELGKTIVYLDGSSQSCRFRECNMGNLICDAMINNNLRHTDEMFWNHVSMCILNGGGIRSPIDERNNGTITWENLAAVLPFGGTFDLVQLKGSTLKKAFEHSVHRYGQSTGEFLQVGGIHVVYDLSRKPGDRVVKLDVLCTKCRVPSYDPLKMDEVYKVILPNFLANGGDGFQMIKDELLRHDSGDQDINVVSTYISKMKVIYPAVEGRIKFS
Kind of assay: Inhibition of ecto-5′-nucleotidase (CD73) activity in CHO-CD73 cells, phosphate colorimetric readout. Format: cell-based. The following applies: CHO-K1 cells stably transfected with human CD73, 2500 cells per well, 25 μM AMP substrate, 50 minutes incubation at 37° C.; read-out: Potency: CD73 IC50. Here is the method:
Inhibition of Ecto-5′-nucleotidase Activity. Compounds were evaluated to determine their ecto-5′-nucleotidase (CD73) inhibitory activity. Briefly, CHO-K1 cells stably transfected with human CD73 were generated by LakePharma (Belmont, CA) using molecular cloning of human CD73 (http://www.uniprot.org/uniprot/P21589) and mammalian transient expression vector (P21589.1). After antibiotic selection in CD OptiCHO cell media (Invitrogen, Catalog #12681-011) containing 5 μg/mL Puromycin and 200 μg/mL Hygromycin B, a suspension pool of CHO-CD73 cells was collected and frozen in 7.5% DMSO in cell media without antibiotics.
On the day of the experiment, one vial of CHO-CD73 cells was thawed and suspended in assay media which consisted of 20 mM HEPES, pH 7.4, 137 mM NaCl, 5.4 mM KCl, 1.3 mM CaCl2), 4.2 mM NaHCO3 and 0.1% glucose. To test the ability of compounds to inhibit CD73 enzymatic activity, 2 μL of 500 μM of compounds dissolved in DMSO (50×) were added to a 96-well polystyrene plate containing 58 μL of assay buffer. Next, 20 μL of CHO-CD73 cells in assay buffer were added to assay plate followed by 20 μL of 125 μM AMP (Adenosine 5′-monophosphate monohydrate) in assay buffer. Final assay conditions consisted of 2500 cells per well in 2% DMSO and 25 μM of AMP substrate. After 50 minutes of incubation (37° C. and 5% CO2) and centrifugation at 225×g for 5 mins, 80 μL of supernatant were transferred to a 96-well Spectra Plate (PerkinElmer, cat #6005640) which was pre-dispensed with 20 μL of PiColorLock Gold colorimetric assay reagents (Thermo, cat #30 300 30). The amount of inorganic phosphate was determined by reading the absorbance at 620 nm on an EnVision Multilabel Plate Reader (PerkinElmer). Enzymatic activity of CD73 was based on the amount of phosphate generated. Percentage of activity was calculated based on DMSO and no cells control wells. IC50 values of compounds were determined by four parameter non-linear regression fitting of percentage of activity in GraphPad Prism software.

As to `O=P(O)(O)CP(=O)(O)OC[C@H]1O[C@@H](n2cnc3c(NCc4cc(C(F)(F)F)cc(C(F)(F)F)c4)ncnc32)[C@H](O)[C@@H]1O`, the IC50 (as a rule, the concentration that inhibits the measured activity by half) is less than 100 nM.
For `O=P(O)(O)CP(=O)(O)OC[C@H]1O[C@@H](n2cnc3c(NCc4ccc(Br)cc4)ncnc32)[C@H](O)[C@@H]1O`, the IC50 is less than 100 nM.
Next, `CC(C)(C)c1ccc(CNc2ncnc3c2ncn3[C@@H]2O[C@H](COP(=O)(O)CP(=O)(O)O)[C@@H](O)[C@H]2O)cc1`: less than 100 nM.
Next, `O=P(O)(O)CP(=O)(O)OC[C@H]1O[C@@H](n2cnc3c(NCc4ccc(-c5ccccc5)cc4)ncnc32)[C@H](O)[C@@H]1O`: less than 100 nM.
As to `COP(=O)(O)CP(=O)(OC)OC[C@H]1O[C@@H](n2cnc3c(N(C)C4CCCC4)nc(Cl)nc32)[C@@H](F)[C@@H]1O` (some centres unmarked), the IC50 was greater than 1000 nM.
Consider `COP(=O)(CP(=O)(O)OC[C@H]1O[C@@H](n2cnc3c(N(C)C4CCCC4)nc(Cl)nc32)[C@@H](F)[C@@H]1O)OC`, for which the IC50 is greater than 1000 nM.
In the case of `COP(=O)(CP(=O)(O)O)OC[C@H]1O[C@@H](n2cnc3c(N(C)C4CCCC4)nc(Cl)nc32)[C@@H](F)[C@@H]1O` (some centres unmarked), the IC50 was less than 100 nM.
On to `O=P(O)(O)CP(=O)(O)OC[C@H]1O[C@@H](n2ncc3c(NC4CCCC4)nc(Cl)nc32)[C@H](O)[C@@H]1O`, for which the IC50 is less than 100 nM.
Under `O=P(O)(O)CP(=O)(O)OC[C@H]1O[C@@H](n2ncc3c(NCc4ccccc4)nc(Cl)nc32)[C@H](O)[C@@H]1O` stands less than 100 nM; under `C[C@H](Nc1nc(Cl)nc2c1cnn2[C@@H]1O[C@H](COP(=O)(O)CP(=O)(O)O)[C@@H](O)[C@H]1O)c1ccccc1`, less than 100 nM.
Under `C[C@@H](Nc1nc(Cl)nc2c1cnn2[C@@H]1O[C@H](COP(=O)(O)CP(=O)(O)O)[C@@H](O)[C@H]1O)c1ccccc1` stands less than 100 nM.
Next, `O=P(O)(O)CP(=O)(O)OC[C@H]1O[C@@H](n2ncc3c(NCc4ccc(Cl)cc4)nc(Cl)nc32)[C@H](O)[C@@H]1O`: less than 100 nM; `C[C@H](Nc1nc(Cl)nc2c1cnn2[C@@H]1O[C@H](COP(=O)(O)CP(=O)(O)O)[C@@H](O)[C@H]1O)c1ccccc1F`: less than 100 nM; `C[C@@H](Nc1nc(Cl)nc2c1cnn2[C@@H]1O[C@H](COP(=O)(O)CP(=O)(O)O)[C@@H](O)[C@H]1O)c1ccccc1F`: less than 100 nM.
Consider `C[C@H](Nc1nc(Cl)nc2c1cnn2[C@@H]1O[C@H](COP(=O)(O)CP(=O)(O)O)[C@@H](O)[C@H]1O)c1cccc(F)c1`, for which the IC50 was less than 100 nM.
Next, `C[C@@H](Nc1nc(Cl)nc2c1cnn2[C@@H]1O[C@H](COP(=O)(O)CP(=O)(O)O)[C@@H](O)[C@H]1O)c1cccc(F)c1`: less than 100 nM; `C[C@H](Nc1nc(Cl)nc2c1cnn2[C@@H]1O[C@H](COP(=O)(O)CP(=O)(O)O)[C@@H](O)[C@H]1O)c1ccc(F)cc1`: less than 100 nM.
Under `C[C@@H](Nc1nc(Cl)nc2c1cnn2[C@@H]1O[C@H](COP(=O)(O)CP(=O)(O)O)[C@@H](O)[C@H]1O)c1ccc(F)cc1` stands less than 100 nM; under `O=P(O)(O)CP(=O)(O)OC[C@H]1O[C@@H](n2ncc3c(NCc4ccccc4Cl)nc(Cl)nc32)[C@H](O)[C@@H]1O`, less than 100 nM.
Under `CN(Cc1ccccc1Cl)c1nc(Cl)nc2c1cnn2[C@@H]1O[C@H](COP(=O)(O)CP(=O)(O)O)[C@@H](O)[C@H]1O` stands less than 100 nM; under `O=P(O)(O)CP(=O)(O)OC[C@H]1O[C@@H](n2ncc3c(NCCc4ccccc4Cl)nc(Cl)nc32)[C@H](O)[C@@H]1O`, less than 100 nM; under `CN(Cc1ccccc1)c1nc(Cl)nc2c1cnn2[C@@H]1O[C@H](COP(=O)(O)CP(=O)(O)O)[C@@H](O)[C@H]1O`, less than 100 nM.
Consider `CN(c1nc(Cl)nc2c1cnn2[C@@H]1O[C@H](COP(=O)(O)CP(=O)(O)O)[C@@H](O)[C@H]1O)C1CCCC1`, for which the 50% inhibitory concentration (IC50) was less than 100 nM.
Regarding `CNc1nc(Cl)nc2c1cnn2[C@@H]1O[C@H](COP(=O)(O)CP(=O)(O)O)[C@@H](O)[C@H]1O`, the half-maximal inhibitory concentration (IC50) is less than 100 nM.
Next, `O=P(O)(O)CP(=O)(O)OC[C@H]1O[C@@H](n2ncc3c(N[C@H](c4ccccc4)C(F)(F)F)nc(Cl)nc32)[C@H](O)[C@@H]1O`: less than 100 nM; `O=P(O)(O)CP(=O)(O)OC[C@H]1O[C@@H](n2ncc3c(N[C@H]4CCOC4)nc(Cl)nc32)[C@H](O)[C@@H]1O`: less than 100 nM; `CC(C)OC(=O)OCOP(=O)(O)CP(=O)(OCOC(=O)OC(C)C)OC[C@H]1O[C@@H](n2ncc3c(NC4CCCC4)nc(Cl)nc32)[C@H](O)[C@@H]1O` (some centres unmarked): greater than 1000 nM.
Next, `CC(C)OC(=O)OCOP(=O)(O)CP(=O)(OCOC(=O)OC(C)C)OC[C@H]1O[C@@H](n2ncc3c(N[C@@H](C)c4ccccc4)nc(Cl)nc32)[C@H](O)[C@@H]1O` (some centres unmarked): greater than 1000 nM; `O=P(O)(O)CP(=O)(O)OC[C@H]1O[C@@H](n2ncc3c(NCc4ccccc4)nc(Cl)nc32)[C@@H](F)[C@@H]1O`: less than 100 nM; `C[C@H](Nc1nc(Cl)nc2c1cnn2[C@@H]1O[C@H](COP(=O)(O)CP(=O)(O)O)[C@@H](O)[C@@H]1F)c1ccccc1`: less than 100 nM.
Take `C[C@@H](Nc1nc(Cl)nc2c1cnn2[C@@H]1O[C@H](COP(=O)(O)CP(=O)(O)O)[C@@H](O)[C@@H]1F)c1ccccc1`: the IC50 is less than 100 nM.
Under `C[C@H](Nc1nc(Cl)nc2c1cnn2[C@@H]1O[C@H](COP(=O)(O)CP(=O)(O)O)[C@@H](O)[C@@H]1F)c1ccccc1F` stands less than 100 nM; under `C[C@@H](Nc1nc(Cl)nc2c1cnn2[C@@H]1O[C@H](COP(=O)(O)CP(=O)(O)O)[C@@H](O)[C@@H]1F)c1ccccc1F`, less than 100 nM.
Consider `C[C@H](Nc1nc(Cl)nc2c1cnn2[C@@H]1O[C@H](COP(=O)(O)CP(=O)(O)O)[C@@H](O)[C@@H]1F)c1cccc(F)c1`, for which the IC50 is less than 100 nM.
Next, `C[C@@H](Nc1nc(Cl)nc2c1cnn2[C@@H]1O[C@H](COP(=O)(O)CP(=O)(O)O)[C@@H](O)[C@@H]1F)c1cccc(F)c1`: less than 100 nM.
On to `C[C@H](Nc1nc(Cl)nc2c1cnn2[C@@H]1O[C@H](COP(=O)(O)CP(=O)(O)O)[C@@H](O)[C@@H]1F)c1ccc(F)cc1`, for which the IC50 was less than 100 nM.
As to `C[C@@H](Nc1nc(Cl)nc2c1cnn2[C@@H]1O[C@H](COP(=O)(O)CP(=O)(O)O)[C@@H](O)[C@@H]1F)c1ccc(F)cc1`, the IC50 was less than 100 nM.
`O=P(O)(O)CP(=O)(O)OC[C@H]1O[C@@H](n2cnc3c(NC4CCCC4)cc(Cl)nc32)[C@H](O)[C@@H]1O`: the IC50 is less than 100 nM.
`O=P(O)(O)CP(=O)(O)OC[C@H]1O[C@@H](n2cnc3c(NC4CCCC4)cc(Cl)nc32)[C@@H](F)[C@@H]1O`: the concentration for half-maximal inhibition (IC50) is less than 100 nM.
Take `O=P(O)(O)CP(=O)(O)OC[C@H]1O[C@@H](n2ncc3c(NC4CCCC4)cc(Cl)nc32)[C@H](O)[C@@H]1O`: the IC50 is less than 100 nM.
With `C[C@H](Nc1cc(Cl)nc2c1cnn2[C@@H]1O[C@H](COP(=O)(O)CP(=O)(O)O)[C@@H](O)[C@H]1O)c1ccccc1`, the IC50 is less than 100 nM.
Next, `C[C@@H](Nc1cc(Cl)nc2c1cnn2[C@@H]1O[C@H](COP(=O)(O)CP(=O)(O)O)[C@@H](O)[C@H]1O)c1ccccc1`: less than 100 nM.
Next, `C[C@H](Nc1cc(Cl)nc2c1cnn2[C@@H]1O[C@H](COP(=O)(O)CP(=O)(O)O)[C@@H](O)[C@H]1O)c1ccc(F)cc1`: less than 100 nM.
As for `O=P(O)(O)CP(=O)(O)OC[C@H]1O[C@@H](n2ncc3c(NC4CCCC4)cc(Cl)nc32)[C@@H](F)[C@@H]1O`, the IC50 is less than 100 nM.
